Experimental data as given in US20260356839A1, “DIRECT SYNTHESIS OF N-(3-SUBSTITUTED-CHROMAN-4-YL)-7H- PYRROLO[2,3-D]PYRIMIDIN-4-AMINES AND DERIVATIVES THEREOF” (MITOKININ, INC., priority 2022, published 2026).

How the values were obtained:
Type in all cases: cell-based
[1] = system: HeLa cells expressing mt-Keima and YFP-Parkin (HeLa MKYP); assay: Human mt-Keima Mitophagy Assay; settings: 16 hrs compound, then 1 μM FCCP/oligomycin for 6 hours, read-out: Mitophagy induction EC50
Description: (§1) HeLa cells expressing mt-Keima and YFP-Parkin (HeLa MKYP) were plated at 10,000 cells/well in 96 well plates along with Mitokinin compounds at various concentrations. Following 16 hrs of incubation, cells were treated with 1 μM FCCP/oligomycin for 6 hours, then analyzed via FACS for the presence of mitochondria in lysosomes (as determined by an emissions spectrum shift from the pH-sensitive mt-Keima tag). Additionally, cells treated with 25 μM Mitokinin compound but not treated with FCCP/oligomycin were analyzed for cytotoxicity.
The above compound was prepared using the synthetic methods detailed herein, and evaluated for PINK1 activity. Additional exemplary PINK1 modulators for which the synthetic methods described herein can be used are described in WO 2021/168446

[2] = Cytotoxicity in the mt-Keima assay cells (FACS, DAPI); settings: human, hela mkyp cells
Description: as §1

[3] = In Vitro Mitotoxicity (glucose/galactose) Assay; settings: human, skov3 cells
Description: Briefly, SKOV3 cells (ATCC HTB-77) were plated in DMEM (Corning 10-013-CV) medium containing 25 mM glucose or DMEM with no glucose (Gibco 11966-025) supplemented with 10 mM galactose at 9,000 cells/well in 96 well plates (Corning costar 3610). 24 hrs later, compounds, in DMSO, were added at various concentrations to a final 0.1% DMSO for all wells. Following 20 hours of incubation with compound, all wells had their growth medium replaced with DMEM containing 25 mM of glucose followed by the addition of Promega CellTiter-Glo® reagent as per manufacturer's instructions. After a 15 minute incubation cellular ATP levels were read out using a Promega GloMax® DiscoverMicroplate Reader.
The ratio of relative CellTiter-Glo values from cells grown in galactose to cells grown in glucose was determined (gal/glc ratio). The gal/glc ratio vs concentration is then graphed, and non-linear regression is used to find the highest concentration of MTK compound at which gal/glc>0.80 (the “highest mito-safe dose”, or IC20). The Mito-Safety Index in Table 2 is equal to the highest mito-safe dose divided by the mt-Keima EC50 dose.

Q: What does the source list for C[C@@H]1CN([C@H]2COc3cc(F)ccc3[C@@H]2Nc2ncnc3[nH]c(C(F)(F)F)cc23)CCO1?
A: EC50 [1]: 0.13 µM; MNTC ([2]; no FO, safe means DAPI + < 20%, read-out: Highest safe dose (cytotoxicity; no FO; safe means DAPI+ < 20%)): 21.9 µM; cytotoxicity ([2]; with 1 μM FCCP/oligomycin (FO), read-out: Max % death with 1 μM FO): 29.6%; selectivity ratio ([3]; highest mito-safe dose divided by the mt-Keima EC50 dose, read-out: Mito-Safety Index (highest safe dose/EC50)): 135; IC20 at 20 h ([3]; mitotox or cytotox, highest concentration at which gal/glc > 0.80 (IC20), 20 hours, read-out: Highest safe dose (mitotox or cytotox)): 17.3 µM
